From ChEMBL document CHEMBL1201862, “PubChem BioAssay data set” (2004)
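48-hour exposure; five concentrations; linearly interpolated endpoints. At the GI50, growth is halved.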 Activity calls are given as the source filed them. Rule as the data show it: active = GI50 up to about 1.1 µM and inactive = higher.

What was measured:
Test in all cases: NCI tumour cell line growth inhibition, 48 h
[1] = system: HCC 2998
[2] = system: CCRF-CEM
[3] = system: M14
[4] = system: MDA-MB-435
[5] = system: MDA-N
[6] = system: NCI/ADR-RES
[7] = system: SW-620
[8] = system: HOP-92
[9] = system: CAKI-1
[10] = system: KM12
[11] = system: OVCAR-3
[12] = system: OVCAR-4
[13] = system: BT-549
[14] = system: A549
[15] = system: 786-0
[16] = system: UACC-257
[17] = system: UACC-62
[18] = system: SR
[19] = system: SK-OV-3
[20] = system: IGROV-1

Row | Compound | GI50 [1] | GI50 [2] | GI50 [3] | GI50 [4] | GI50 [5] | GI50 [6] | GI50 [7] | GI50 [8] | GI50 [9] | GI50 [10] | GI50 [11] | GI50 [12] | GI50 [13] | GI50 [14] | GI50 [15] | GI50 [16] | GI50 [17] | GI50 [18] | GI50 [19] | GI50 [20]
1 | O=C1c2cccnc2C(=O)C2C3C=CC(C3)C12 (stereo not given) | 15.8 µM (inactive) | 1.18 µM (inactive) | 13.3 µM (inactive) | 2.25 µM (inactive) | 3.61 µM (inactive) | 4.52 µM (inactive) | 4.41 µM (inactive) | 12.9 µM (inactive) | 14.4 µM (inactive) | 14.5 µM (inactive) | 13.5 µM (inactive) | 5.01 µM (inactive) | 11.5 µM (inactive) | 12.4 µM (inactive) | 11.1 µM (inactive) | 13.5 µM (inactive) | 3.37 µM (inactive) | 2.11 µM (inactive) | 18.3 µM (inactive) | 10.6 µM (inactive)
2 | COc1ccc(-c2cs/c(=N\c3ccccc3)n2CC(O)c2ccc([N+](=O)[O-])cc2)cc1 (stereo not given) | > 100 µM (inactive) | > 71.1 µM (inactive) | > 100 µM (inactive) | > 100 µM (inactive) | > 100 µM (inactive) | > 74.5 µM (inactive) | > 100 µM (inactive) | > 100 µM (inactive) | > 100 µM (inactive) | > 100 µM (inactive) | > 100 µM (inactive) | > 100 µM (inactive) | > 100 µM (inactive) | > 100 µM (inactive) | > 100 µM (inactive) | > 76.9 µM (inactive) | > 73.5 µM (inactive) | 4.25 µM (inactive) | > 100 µM (inactive) | > 100 µM (inactive)
3 | CC(=O)N(C(C)=O)c1ncc(-n2nc(-c3ccccc3)cc2-c2ccccc2)c(-c2ccccc2)n1 | > 10 µM (inactive) | 9.75 µM (inactive) | > 10 µM (inactive) | 3.52 µM (inactive) | 3.15 µM (inactive) | > 10 µM (inactive) | > 10 µM (inactive) | > 10 µM (inactive) | > 10 µM (inactive) | 6.17 µM (inactive) | > 10 µM (inactive) | > 10 µM (inactive) | > 10 µM (inactive) | > 10 µM (inactive) | > 10 µM (inactive) | > 10 µM (inactive) | > 10 µM (inactive) | 3.5 µM (inactive) | > 10 µM (inactive) | > 10 µM (inactive)
4 | COC(=O)C1OC(O[C@H]2CC[C@]3(C)[C@H]4CC=C5[C@@H]6CC(C)(C)CC[C@]6(C(=O)OC6OCC(O)C(O)C6OC6OC(C)C(OC7OCC(O)C(O)C7O)C(OC7OCC(O)(CO)C7O)C6O)[C@H](O)C[C@@]5(C)[C@]4(C)CC[C@H]3C2(C)C)C(O)C(O)C1O (stereo not given in full) | 2.29 µM (inactive) | 14.9 µM (inactive) | 2.82 µM (inactive) | 1.89 µM (inactive) | 2.01 µM (inactive) | 4.91 µM (inactive) | 6.28 µM (inactive) | 1.83 µM (inactive) | 4.69 µM (inactive) | 2.88 µM (inactive) | 8.63 µM (inactive) | 4.98 µM (inactive) | 2.64 µM (inactive) | 3.52 µM (inactive) | 7.45 µM (inactive) | 2.96 µM (inactive) | 2.51 µM (inactive) | 2.08 µM (inactive) | 12.2 µM (inactive) | 12.1 µM (inactive)
5 | N=c1c2sc3nc4ccccc4n3c2ncn1Cc1ccccc1 | > 100 µM (inactive) | > 100 µM (inactive) | > 100 µM (inactive) | > 100 µM (inactive) | > 100 µM (inactive) | > 100 µM (inactive) | > 100 µM (inactive) | > 100 µM (inactive) | > 100 µM (inactive) | 0.957 µM (active) | > 100 µM (inactive) | > 100 µM (inactive) | > 100 µM (inactive) | > 100 µM (inactive) | > 100 µM (inactive) | > 100 µM (inactive) | > 100 µM (inactive) | > 100 µM (inactive) | > 100 µM (inactive) | > 100 µM (inactive)
6 | COC1=CC(=O)c2c(c(-c3csc(C)n3)cn2C)C1=O | 10.9 µM (inactive) | 19.2 µM (inactive) | 5.58 µM (inactive) | 13.8 µM (inactive) | 14.8 µM (inactive) | 22 µM (inactive) | 35.9 µM (inactive) | > 100 µM (inactive) | 29.3 µM (inactive) | 22.8 µM (inactive) | 9.14 µM (inactive) | 58.2 µM (inactive) | 22.8 µM (inactive) | 2.15 µM (inactive) | 36 µM (inactive) | 5.92 µM (inactive) | 12.1 µM (inactive) | 23.3 µM (inactive) | 57.3 µM (inactive) | 20.7 µM (inactive)
7 | Cc1cc(C)n(-c2nc(-n3nc(C)cc3C)nc(-n3nc(C)cc3C)n2)n1 | > 100 µM (inactive) | 62.7 µM (inactive) | > 100 µM (inactive) | > 100 µM (inactive) | > 100 µM (inactive) | > 100 µM (inactive) | > 100 µM (inactive) | > 100 µM (inactive) | 39.2 µM (inactive) | > 100 µM (inactive) | > 100 µM (inactive) | > 100 µM (inactive) | > 100 µM (inactive) | > 100 µM (inactive) | > 100 µM (inactive) | > 100 µM (inactive) | > 100 µM (inactive) | > 100 µM (inactive) | > 100 µM (inactive) | > 100 µM (inactive)
8 | CN(C)S(=O)(=O)c1ccc2c(c1)/C(=C1/Nc3ccccc3C1=O)C(=O)N2 | > 100 µM (inactive) | > 100 µM (inactive) | > 100 µM (inactive) | > 100 µM (inactive) | > 100 µM (inactive) | 71.9 µM (inactive) | > 100 µM (inactive) | 16.8 µM (inactive) | > 100 µM (inactive) | > 100 µM (inactive) | 93.1 µM (inactive) | > 100 µM (inactive) | 15 µM (inactive) | > 100 µM (inactive) | 16 µM (inactive) | > 100 µM (inactive) | 14.7 µM (inactive) | 14.7 µM (inactive) | 13.9 µM (inactive) | 11.9 µM (inactive)
9 | NNC(=O)Nc1nc2ccc(NN)cc2[nH]1 | 18.5 µM (inactive) | 14.6 µM (inactive) | 31.5 µM (inactive) | 21.5 µM (inactive) | 28.2 µM (inactive) | 47.8 µM (inactive) | 23.8 µM (inactive) | 19.7 µM (inactive) | 41.7 µM (inactive) | 19.5 µM (inactive) | 24.5 µM (inactive) | 34.3 µM (inactive) | 24 µM (inactive) | 74 µM (inactive) | 31.3 µM (inactive) | 31.8 µM (inactive) | 21.1 µM (inactive) | 19.5 µM (inactive) | 40.2 µM (inactive) | 42 µM (inactive)
10 | CCCCCCCCCCC(C(=O)O)C1(C(=O)O)CCC(=O)O1 (stereo not given) | > 100 µM (inactive) | > 100 µM (inactive) | > 100 µM (inactive) | > 100 µM (inactive) | > 100 µM (inactive) | > 100 µM (inactive) | > 100 µM (inactive) | > 100 µM (inactive) | > 100 µM (inactive) | > 100 µM (inactive) | > 100 µM (inactive) | 43.2 µM (inactive) | > 100 µM (inactive) | > 100 µM (inactive) | > 100 µM (inactive) | > 100 µM (inactive) | > 100 µM (inactive) | > 100 µM (inactive) | > 100 µM (inactive) | > 100 µM (inactive)
